Three molecules from patent US20110158909A1, “Cationic Contrast Agents and Methods of Use Thereof” (Trustees of Boston University, priority 2008, published 2011) can be followed below.

Data set [1] in a line: CT imaging of normal and trypsin degraded osteochondral plugs with anionic and cationic contrast agent. Further details: species or system bovine. The note with it: for x-ray attenuation coefficient, normal vs trypsin degraded osteochondral plugs: 16 mg/mL bound iodine, overnight at 4° C., p<0.05. As to the method:
In one experiment, eight osteochondral plugs (7 mm diameter) were harvested immediately after slaughter from the patella-femoral joint of three mature cows using a water-cooled, cylindrical diamond tipped cutter (See FIG. 2a for an example picture of osteochondral plugs). The plugs were divided into a normal cartilage group (n=4) and a trypsin degraded cartilage group (n=4). The osteochondral plugs of the degraded cartilage group were immersed in trypsin (2 mg/mL in 50 mM Tris, 20 mM CaCl2, pH=7.8) and incubated for 2 hours at 37° C.
All the plugs were immersed overnight in Cysto Conray II, an anionic, triiodinated contrast agent, diluted in PBS to 16 mg/mL of bound iodine at 4° C. to allow sufficient time for the contrast agent to diffuse into the cartilage. Sequential, 100μ thick, transaxial pQCT images were obtained at 70μ in plane resolution and 300μ inter-slice distance (XCT Research SA+, Stratec) for all the osteochondral plugs. The CT data were imported into Analyze™ (BIR, Mayo Clinic) to create reconstructed 3D images of the osteochondral plugs (see FIG. 2b for a representative image representing one slice of the reconstructed 3D image). A user specified contour was employed to segment the cartilage from the bone. The mean x-ray attenuation coefficient for cartilage was obtained by averaging over all pixels contained in cartilage on the transaxial CT images. The osteochondral plugs were then washed in PBS to remove the anionic contrast agent. The plugs were then re-immersed in the cationic triiodinated contrast agent at the same dilution and conditions used for the anionic contrast agent and repeat CT imaging of the osteochondral plugs was performed.
The GAG content of the articular cartilage was measured using a dimethylmethylene blue (DMMB) assay. A razor blade was used to separate the articular cartilage from the subchondral bone and the cartilage was stored at −20° C. After weighing the hydrated cartilage, it was lyophilized and weighed dry. The cartilage was digested with papain at 65° C. for 24 hours and diluted 10 to 100 times for the assay. Accounting for the dilution, the total GAG weight per mg cartilage dry weight was calculated.
The GAG content measured directly; the x-ray attenuation measured by CT for the anionic and cationic contrast agents were compared for the normal and trypsin degraded articular cartilage plugs using 1-way.ANOVA. Further, the x-ray attenuation measured by CT for both the anionic and cationic contrast agents was expressed as a function of the measured GAG content. The slopes of these relationships were compared to assess the relative sensitivity of these contrast agents to measure differences in the GAG content of articular cartilage.

Data set [2] can be described thus: Passive diffusion of contrast agents into and out of articular cartilage, quantitative CT. The note with it: for average CT attenuation: time=5 h to time=24 h of immersion in contrast agent, 27 mg iodine/mL, pH 6.8, n=4. The arrangement: species or system bovine. The protocol: The diffusion characteristics of the contrast agents were evaluated using bovine osteochondral plugs. Two cationic contrast agents, 4 and 6, were compared to a commercially-available singly-charged anionic contrast agent, iothalamate (Cysto Conray II®). Three groups of osteochondral plugs were prepared (n=4)—one for each contrast agent. The plugs were immersed in aqueous contrast agent solution (27 mg of organically-bound iodine/mL, pH 6.8) and removed at 1, 2, 4, 6, 18, and 24 h for imaging using quantitative CT (QCT). Following diffusion into the cartilage, the osteochondral plugs were immersed in saline solution and imaged at the same time points to monitor the diffusion of the contrast agent out of the cartilage. Articular cartilage has a natural anisotropic distribution of GAGs, with low GAG content in the superficial zone and higher GAG content in the middle and deep zones. This anisotropic distribution of GAG was reflected by the variation in x-ray attenuation in the CT images (FIG. 5B). […] In order to determine the initial rates of diffusion into the cartilage tissue, linear regression analyses were applied to the contrast-enhanced CT attenuation data for each osteochondral plug after immersion for 0, 1, and 2 h (Table 1). The slope represents the average rate of diffusion for each contrast agent. Cationic contrast agents 4 and 6 diffuse into cartilage 1.77 and 1.65 times faster, respectively, than the anionic agent iothalamate (FIG. 6).

The nature of data set [3]: Cartilage degradation study (chondroitinase ABC): CT attenuation vs GAG content by DMMB assay. Further details: species or system bovine. As to conditions: for slope of linear regression, average CT intensity vs GAG content: GAG content as 100×(mg of GAG)/(mg of hydrated cartilage). From the text:
In order to evaluate the ability of the contrast agents to diagnose an OA state, the hyaline cartilage of the osteochondral plugs was enzymatically degraded to mimic the GAG depletion observed in early OA by exposing the hyaline cartilage to different concentrations of the polysaccharide-specific hydrolase, chondroitinase ABC. After degradation, the same set of osteochondral plugs was exposed to each contrast agent consecutively, enabling a direct comparison of the resulting data. The average CT attenuation for each group was plotted as a function of the GAG content obtained by the DMMB assay and subjected to linear regression analysis (FIG. 7A). […] The variation in CT attenuation effected by diffusion of cationic contrast agent 6, with four positive charges, into the hyaline cartilage accounted for 79% of the variation in cartilage GAG, whereas the variation in CT attenuation effected by diffusion of cationic contrast agent 4, with a single positive charge, accounted for 56% of the variation in cartilage GAG. In comparison, the diffusion of anionic contrast agent iothalamate with a single negative charge accounted for 52% of the variation in cartilage GAG. The slope of the regression line represents the sensitivity of contrast enhanced CT attenuation of cartilage to changes in the GAG content of the cartilage. The cationic contrast agents were more sensitive (4: 1.4× and 6: 5.3×) to changes in cartilage GAG content than the anionic contrast agent iothalamate.

Data set [4] is described as follows: microCT imaging of intact rabbit femur. The note with it: magnified view of cartilage surface, FIG. 8B. An excerpt:
Contrast agent 6 was chosen for use in a rabbit femur study to highlight the ability of the cationic contrast agent to portray the variation in cartilage GAG concentration and cartilage thickness in an intact rabbit femur. […] The contrast-enhanced CT image was able to define the anisotropic distribution of GAG through the depth of the articular cartilage. […] The contrast enhanced CT image of the femur can also be used to determine the variable thickness of the articular cartilage. […] Cartilage thickness is greater at the femoral groove than at the condyles.

Setting [5] is: 2 h immersion in contrast agent.

SMILES strings stand for the structures. Read-outs that look alike come from different tables or passages of the source.

On to `NCCNC(=O)c1c(I)c(N)c(I)c(C(=O)NCCN)c1I` [contrast agent 2], for which the “x-ray attenuation coefficient, normal vs trypsin degraded osteochondral plugs” value in data set [1] is “greater than that for the trypsin degraded osteochondral plugs”. Also, the “sensitivity of relative change in x-ray attenuation to change in GAG content, compared to anionic contrast agent” value in data set [1] (normal vs trypsin degraded plugs) amounted to 4.3 ×. Further, the “enhancement of CT images of cartilage tissue” value in data set [1] (osteochondral plugs) is recorded as “capable of enhancing CT images of the cartilage tissue”.

`NCCNC(=O)c1c(I)cc(I)c(N)c1I` [contrast agent 6]: in data set [2] (setting [5]), the “CT attenuation of cartilage in CT images” value is listed as “medium levels”. Also, the “CT attenuation of cartilage in CT images” value in data set [2] (after 24 h in saline) is on record as “still showed medium levels of CT attenuation”. Besides, the “x-ray attenuation higher compared to iothalamate” value in data set [2] (after equilibration (24 h)) is approximately 60%. The “initial rate of diffusion into cartilage relative to iothalamate” value in data set [2] (linear regression of CT attenuation at 0, 1 and 2 h) is reported as 1.65 times faster. Moreover, in data set [2], the “average CT attenuation” value was 900-1100. Besides, in data set [3], the “level of CT attenuation in CT images of degraded and undegraded plugs” value was “high levels of CT attenuation”; the “relation of CT attenuation to GAG content” value is given as “directly proportional”; the “sensitivity to changes in cartilage GAG content relative to iothalamate (slope of regression line)” value stood at 5.3 ×; the “variation in cartilage GAG accounted for by variation in CT attenuation” value turned out to be 79%. Also, the “slope of linear regression, average CT intensity vs GAG content” value in data set [3] is 13758. In data set [4], the “sensitivity to distribution of GAG in cartilage surface” value is reported as “sensitive to the variable distribution of GAG throughout the cartilage surface”.

For `CNC(=O)c1c(I)c(NC(C)=O)c(I)c(C(=O)O)c1I` [iothalamate, reference compound], in data set [1], the “x-ray attenuation coefficient, normal vs trypsin degraded osteochondral plugs” value is “inverse relation”. The “CT attenuation of cartilage in CT images” value in data set [2] (setting [5]) is “very little change”. Further, the “reflection of anisotropic GAG distribution (deep vs superficial zone) in CT images” value in data set [2] (FIG. 5B) was “less sensitive to subtle changes in the GAG content”. Moreover, in data set [2] (after 2 h of immersion in saline), the “CT attenuation of cartilage in CT images” value is recorded as “began to decline”. Also, the “removal from cartilage on immersion in saline” value in data set [2] (after immersion in saline for 6 hours) is listed as “almost completely removed”. In data set [2], the “average CT attenuation” value is 500-600. In addition, in data set [3], the “relation of CT attenuation to GAG content” value was “indirectly related”; the “variation in cartilage GAG accounted for by variation in CT attenuation” value is recorded as 52%; the “slope of linear regression, average CT intensity vs GAG content” value is “negative slope”. Besides, the “level of CT attenuation in CT images of degraded and undegraded plugs” value in data set [3] (after equilibrium in contrast agent, FIG. 7B) is recorded as “low levels of CT attenuation”.
